Laboratory results reported in the supplement of paper PMC10307832.

Experiments:
Test in all cases: relative viability (nuclei count vs DMSO), 5 days (fraction); higher = more cells survive
Quizartinib + Alpelisib = compound: CC(C)(C)c1cc(NC(=O)Nc2ccc(-c3cn4c(n3)sc3cc(OCCN5CCOCC5)ccc34)cc2)no1 [Quizartinib] + Cc1nc(NC(=O)N2CCC[C@H]2C(N)=O)sc1-c1ccnc(C(C)(C)C(F)(F)F)c1 [Alpelisib] (partner 2 µM)
Outline: (§1)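 Nuclei were stained with Hoechst during a one-step fixation (final 0.05% Triton X-100, 1% formaldehyde, 1 ug/ml Hoechst) carried out 5 days after dosing, then counted on 4× images. The cells, lung cancer lines in 1536-well plates, had been dosed by pin tool the day after seeding with one drug alone or a fixed anchor-drug dose plus five library-drug doses (not always all listed) in √10 steps. Relative viability is the nuclei count in treated wells divided by that in vehicle wells, and each value is the median of duplicate plates.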

Quizartinib + Dasatinib = compound: CC(C)(C)c1cc(NC(=O)Nc2ccc(-c3cn4c(n3)sc3cc(OCCN5CCOCC5)ccc34)cc2)no1 [Quizartinib] + Cc1nc(Nc2ncc(C(=O)Nc3c(C)cccc3Cl)s2)cc(N2CCN(CCO)CC2)n1 [Dasatinib] (partner 0.075 µM)
Outline: as §1

YM155 + Foretinib = compound: COCC[n+]1c2c(n(Cc3cnccn3)c1C)C(=O)c1ccccc1C2=O [YM155] + COc1cc2c(Oc3ccc(NC(=O)C4(C(=O)Nc5ccc(F)cc5)CC4)cc3F)ccnc2cc1OCCCN1CCOCC1 [Foretinib] (partner 0.25 µM)
Outline: as §1

YM155 + Phenformin = compound: COCC[n+]1c2c(n(Cc3cnccn3)c1C)C(=O)c1ccccc1C2=O [YM155] + N=C(N)NC(=N)NCCc1ccccc1 [Phenformin] (partner 250 µM)
Outline: as §1

Cell Line	relative viability (Quizartinib + Alpelisib; first compound 0.001 µM)	relative viability (Quizartinib + Alpelisib; first compound 0.003162 µM)	relative viability (Quizartinib + Alpelisib; first compound 0.01 µM)	relative viability (Quizartinib + Alpelisib; first compound 0.03162 µM)	relative viability (Quizartinib + Alpelisib; first compound 0.1 µM)	relative viability (Quizartinib + Dasatinib; first compound 0.001 µM)	relative viability (Quizartinib + Dasatinib; first compound 0.003162 µM)	relative viability (Quizartinib + Dasatinib; first compound 0.01 µM)	relative viability (Quizartinib + Dasatinib; first compound 0.1 µM)	relative viability (YM155 + Foretinib; first compound 0.002 µM)	relative viability (YM155 + Foretinib; first compound 0.006325 µM)	relative viability (YM155 + Foretinib; first compound 0.02 µM)	relative viability (YM155 + Foretinib; first compound 0.06325 µM)	relative viability (YM155 + Phenformin; first compound 0.002 µM)	relative viability (YM155 + Phenformin; first compound 0.006325 µM)	relative viability (YM155 + Phenformin; first compound 0.02 µM)	relative viability (YM155 + Phenformin; first compound 0.06325 µM)	relative viability (Quizartinib + Dasatinib; first compound 0.03162 µM)
SK-MES-1	0.838	0.424	1.06	0.865	0.97	0.337	0.354	0.404	0.273	0.9	0.889	0.921	0.921	0.584	0.695	0.575	0.256	
NCI-H1975	0.638	0.521	0.655	0.545	0.585	0.415	0.305	0.367	0.325	0.978	0.907	0.933	0.308	0.384	0.415	0.406	0.395	0.297
HCC-78	0.343	0.33	0.393	0.315	0.342	0.354	0.53	0.308	0.346	0.53	0.51	0.543	0.586	0.638	0.73	0.779	0.76	0.294
H3255	0.55	0.619	0.795	0.63	0.797	0.414	0.347	0.366	0.345	0.917	0.896	0.998	1.07	0.335	0.336	0.376	0.374	0.346
NCI-H1299		1.01	1.11	1.06	0.986					1.12	1.07	1.16	1.04					
NCI-H441	0.656	0.541	0.885	0.733	0.779	0.617	0.571	0.765	0.771	0.859	0.636	0.992	0.43	0.776	0.848	0.763	0.865	
NCI-H1755	0.798	0.851	0.975	0.917	0.923	0.389	0.367	0.409	0.404	0.853	0.934	0.884	0.976	0.626	0.575	0.602	0.657	0.429
LCLC-97TM1		0.22	0.267	0.261	0.252	0.856	0.735	0.842	0.738	0.924	0.97	1.07	0.97	0.387	0.432	0.407	0.447	0.892
NCI-H2085	0.88	0.881	0.997	0.822	0.827	0.282	0.237	0.253	0.236	0.887	0.922	0.915	0.629	0.782	0.835	0.847	0.725	0.231
BEN	0.919	0.863	1.05	0.795	0.969	0.292	0.335	0.347	0.318	0.622	0.716	0.804	0.645	0.28	0.258	0.227	0.266	0.257
NCI-H2126	0.76	0.726	0.757	0.774	0.753	0.454	0.603	0.655	0.625	0.893	1.07	1.25	1.29	0.508	0.597	0.555	0.522	
EMC-BAC-2	0.695	0.696	0.762	0.766	0.73	0.296	0.299	0.294	0.375	1.03	0.986	0.966	0.95	0.463	0.514	0.542	0.568	
NCI-H1793	0.588	0.875	0.788	0.731	0.798	0.357	0.381	0.356	0.327	0.626	0.875	0.675	0.79	0.348	0.371	0.365	0.353	0.392
NCI-H650	1.02	1.12	1.14	1.14	1.14	0.484	0.524	0.391	0.506	0.985	0.932	0.988	1.06	0.417	0.477	0.523	0.447	0.415
NCI-H1437	0.911	0.883	1.13	0.749	0.711	0.375	0.467	0.384	0.363	1.21	1.24	1.26	0.984	0.285	0.308	0.257	0.324	0.27
COR-L 105	0.751	0.898	1.12	0.527	1.05	0.385	0.408	0.413	0.283	0.994	1.02	0.848	0.733	0.343	0.462	0.508	0.581	0.381
CAL-12T	1.03	1.08	1.29	0.467	1.47	0.382	0.489	0.535	0.328	1.14	1.16	0.928	0.587	0.497	0.607	0.658	0.642	0.388
IA-LM	0.695	0.761	0.808	0.789	0.844					1.15	1.03	1.33	0.975					
ChaGo-K-1						0.595	0.543	0.588	0.56	0.854	0.984	0.926	0.854	0.469	0.488	0.519	0.578	0.606
